Source: the NIST ThermoML archive (doi:10.1016/j.jct.2018.03.013)
Numbers after ± are expanded uncertainties.

How the values were obtained:
[1] = 100 kPa, Liquid; for speed of sound: Frequency=3 MHz, Linear variable-path acoustic interferometer; for mass density: Pycnometric method
[2] = xn = mol fraction of the nth substance listed; conditions: 100 kPa, Liquid, x1 = 1; for speed of sound: Frequency=3 MHz, Linear variable-path acoustic interferometer; for mass density: Pycnometric method

SMILES | speed of sound ([1]; 293.15 K) [m/s] | mass density ([1]; 293.15 K) [kg/m3] | speed of sound ([1]; 298.15 K) [m/s] | mass density ([1]; 298.15 K) [kg/m3] | speed of sound ([1]; 303.15 K) [m/s] | mass density ([1]; 303.15 K) [kg/m3] | speed of sound ([1]; 308.15 K) [m/s] | mass density ([1]; 308.15 K) [kg/m3] | speed of sound ([1]; 313.15 K) [m/s] | mass density ([1]; 313.15 K) [kg/m3] | speed of sound ([1]; 318.15 K) [m/s] | mass density ([1]; 318.15 K) [kg/m3] | speed of sound ([2]; 293.15 K) [m/s] | mass density ([2]; 293.15 K) [kg/m3] | speed of sound ([2]; 298.15 K) [m/s] | mass density ([2]; 298.15 K) [kg/m3] | speed of sound ([2]; 303.15 K) [m/s] | mass density ([2]; 303.15 K) [kg/m3] | speed of sound ([2]; 308.15 K) [m/s] | mass density ([2]; 308.15 K) [kg/m3] | other results
C=C(C)C(=O)OCC [ethyl 2-methylpropenoate] | 1196.8 ± 1.6 | 912.3 ± 1 | 1176.9 ± 1.6 | 907.18 ± 1 | 1157.6 ± 1.6 | 902.06 ± 1 | 1139.4 ± 1.6 | 896.94 ± 1 | 1121.5 ± 1.6 | 891.83 ± 1 | 1104.6 ± 1.6 | 886.71 ± 1 |  |  |  |  |  |  |  |  | 
C=C(C)C(=O)OC [methyl methacrylate] | 1200.5 ± 1.6 | 943.38 ± 1 | 1183.6 ± 1.6 | 937.64 ± 1 | 1168.5 ± 1.6 | 931.9 ± 1 | 1152.6 ± 1.6 | 926.16 ± 1 | 1135.4 ± 1.6 | 920.42 ± 1 | 1118.3 ± 1.6 | 914.67 ± 1 |  |  |  |  |  |  |  |  | 
CC#N [acetonitrile] + C=C(C)C(=O)OCCCC |  |  |  |  |  |  |  |  |  |  |  |  | 1304.7 ± 1.7 | 782.12 ± 1 | 1282.8 ± 1.6 | 776.82 ± 1 | 1263.9 ± 1.6 | 771.52 ± 1 | 1245 ± 1.6 | 766.21 ± 1 | speed of sound ([2]; 313.15 K): 1226.5 ± 1.6 m/s; mass density ([2]; 313.15 K): 760.9 ± 1 kg/m3; speed of sound ([2]; 318.15 K): 1207.9 ± 1.6 m/s; mass density ([2]; 318.15 K): 755.59 ± 1 kg/m3
CC#N [acetonitrile] + C=C(C)C(=O)OCC |  |  |  |  |  |  |  |  |  |  |  |  | 1304.7 ± 1.7 | 782.12 ± 1 | 1282.8 ± 1.6 | 776.82 ± 1 | 1263.9 ± 1.6 | 771.52 ± 1 | 1245 ± 1.6 | 766.21 ± 1 | speed of sound ([2]; 313.15 K): 1226.5 ± 1.6 m/s; mass density ([2]; 313.15 K): 760.9 ± 1 kg/m3; speed of sound ([2]; 318.15 K): 1207.9 ± 1.6 m/s; mass density ([2]; 318.15 K): 755.59 ± 1 kg/m3
CC#N [acetonitrile] + C=C(C)C(=O)OC |  |  |  |  |  |  |  |  |  |  |  |  | 1304.7 ± 1.7 | 782.12 ± 1 | 1282.8 ± 1.6 | 776.82 ± 1 | 1263.9 ± 1.6 | 771.52 ± 1 | 1245 ± 1.6 | 766.21 ± 1 | speed of sound ([2]; 313.15 K): 1226.5 ± 1.6 m/s; mass density ([2]; 313.15 K): 760.9 ± 1 kg/m3; speed of sound ([2]; 318.15 K): 1207.9 ± 1.6 m/s; mass density ([2]; 318.15 K): 755.59 ± 1 kg/m3
C=C(C)C(=O)OCCCC [butyl 2-methyl-2-propenoate] | 1241.7 ± 1.7 | 895.19 ± 1 | 1222.1 ± 1.7 | 890.48 ± 1 | 1202.4 ± 1.7 | 885.78 ± 1 | 1183 ± 1.7 | 881.07 ± 1 | 1163.8 ± 1.7 | 876.35 ± 1 | 1145.7 ± 1.7 | 871.64 ± 1 |  |  |  |  |  |  |  |  | 
CC#N [acetonitrile] | 1304.7 ± 1.7 | 782.12 ± 1 | 1282.8 ± 1.6 | 776.82 ± 1 | 1263.9 ± 1.6 | 771.52 ± 1 | 1245 ± 1.6 | 766.21 ± 1 | 1226.5 ± 1.6 | 760.9 ± 1 | 1207.9 ± 1.6 | 755.59 ± 1 |  |  |  |  |  |  |  |  | 
